Data published in patent US20220306695A1, “COMPSTATIN ANALOGUES AND THEIR MEDICAL USES” (priority 2019, published 2022).
Starred links: 1 amine or outer side, 2 acyl side, 3 side chain; linkers in the order of their positions; H or OH if unused. Positions of bridges follow the written chain, without caps; N, C: chain ends. Non-standard residues stand in square brackets, D forms with d. Residues, ends and D or L forms follow the SMILES beside them. Groups on a side chain read outwards from the residue. *: point of attachment. Trp(1-Me) = Cn1cc(C[C@H](N)C(=O)O)c2ccccc21; C18 diacid = O=C(O)CCCCCCCCCCCCCCCCC(=O)*; γGlu = O=C(O)[C@H](CCC(=O)[*:2])N[*:1]; 1Nal = N[C@@H](Cc1cccc2ccccc12)C(=O)O; Sar = CNCC(=O)O

Tests used:
[1] = Solubility test at 10 mg/mL (visual inspection and light scattering); type: physicochemical; details: for Solubility, Condition 1 Acetate pH 4: 10 mg/mL compound in 100 mM acetate pH 4; for Solubility, Condition 2 Acetate pH 5: 10 mg/mL compound in 100 mM acetate pH 5; for Solubility, Condition 3 Phosphate pH 6: 10 mg/mL compound in 100 mM phosphate pH 6; for Solubility, Condition 4 Phosphate pH 7: 10 mg/mL compound in 100 mM phosphate pH 7; for Solubility, Condition 5 Phosphate pH 7.5: 10 mg/mL compound in 100 mM phosphate pH 7.5
[2] = system: classical complement pathway; assay: In vitro haemolysis assay (inhibition of classical complement pathway); type: cell-based, human; details: Table 3; human serum, sensitized sheep red blood cells; read-out: IC50[nM], in vitro analysis of inhibition of hemolysis
Procedure, shortened: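 Serially diluted compound (9 points) was preincubated 15 min at room temperature with diluted human serum, titrated per batch to give 70-90% maximal haemolysis, in Tris/casein buffer pH 7.4 with Mg2+/Ca2+. Antibody-sensitized sheep erythrocytes were then added for 30 min at 37° C, and the reaction was stopped with EDTA. Haemolysis was read at A405, with IC50 from 4PL fit.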

| Structure (SMILES) | Solubility, Condition 1 Acetate pH 4 [1] | Solubility, Condition 2 Acetate pH 5 [1] | Solubility, Condition 3 Phosphate pH 6 [1] | Solubility, Condition 4 Phosphate pH 7 [1] | Solubility, Condition 5 Phosphate pH 7.5 [1] | IC50 [2] [nM] |
| --- | --- | --- | --- | --- | --- | --- |
| CC[C@H](C)[C@@H]1NC(=O)[C@@H](NC(=O)[C@@H](NC(=O)[C@H](CCC(=O)O)NC(=O)[C@H](CO)NC(=O)[C@H](CCC(=O)O)NC(C)=O)[C@@H](C)CC)CSSC[C@@H](C(=O)N[C@H](C(N)=O)[C@@H](C)O)NC(=O)[C@H](CCCNC(=N)N)NC(=O)[C@H](Cc2c[nH]cn2)NC(=O)[C@H](CCC(=O)O)NC(=O)CNC(=O)[C@H](Cc2c[nH]c3ccccc23)NC(=O)[C@H](CC(=O)O)NC(=O)[C@H](CCC(N)=O)NC(=O)[C@H](Cc2c[nH]c3ccccc23)NC1=O [Compound 31] (Ac-ESEICIWQDWGEHRCT-NH2; disulfide 5-15) | + (denotes solubility at the given condition, as determined by UV absorbance being less than 0.1 AU at 340 nm and the sample being clear when manually inspected.) | + (denotes solubility at the given condition, as determined by UV absorbance being less than 0.1 AU at 340 nm and the sample being clear when manually inspected.) | + (denotes solubility at the given condition, as determined by UV absorbance being less than 0.1 AU at 340 nm and the sample being clear when manually inspected.) | + (denotes solubility at the given condition, as determined by UV absorbance being less than 0.1 AU at 340 nm and the sample being clear when manually inspected.) | + (denotes solubility at the given condition, as determined by UV absorbance being less than 0.1 AU at 340 nm and the sample being clear when manually inspected.) | < 100 |
| CC[C@H](C)[C@H](NC(C)=O)C(=O)N[C@H]1CSSC[C@@H](C(=O)N[C@H](C(=O)N[C@@H](CCC(=O)O)C(=O)N[C@@H](C)C(N)=O)[C@@H](C)O)NC(=O)[C@H](CCCNC(=N)N)NC(=O)[C@H](Cc2c[nH]cn2)NC(=O)[C@H](CCC(=O)O)NC(=O)CNC(=O)[C@H](Cc2c[nH]c3ccccc23)NC(=O)[C@H](CC(=O)O)NC(=O)[C@H](CCC(N)=O)NC(=O)[C@H](Cc2c[nH]c3ccccc23)NC(=O)[C@H]([C@@H](C)CC)NC1=O [Compound 25] (Ac-ICIWQDWGEHRCTEA-NH2; disulfide 2-12) | + (denotes solubility at the given condition, as determined by UV absorbance being less than 0.1 AU at 340 nm and the sample being clear when manually inspected.) | − (denotes lack of solubility at the given condition, as UV absorbance at 340 nm exceeds 0.1 AU and/or it is visibly turbid or contains particles.) | − (denotes lack of solubility at the given condition, as UV absorbance at 340 nm exceeds 0.1 AU and/or it is visibly turbid or contains particles.) | + (denotes solubility at the given condition, as determined by UV absorbance being less than 0.1 AU at 340 nm and the sample being clear when manually inspected.) | + (denotes solubility at the given condition, as determined by UV absorbance being less than 0.1 AU at 340 nm and the sample being clear when manually inspected.) | < 100 |
| CC[C@H](C)[C@@H]1NC(=O)[C@@H](NC(=O)[C@H](Cc2ccc(O)cc2)NC(=O)[C@H](C)NC(=O)[C@H](CO)NC(=O)CNC(=O)[C@H](CCC(=O)O)NC(C)=O)CSSC[C@@H](C(=O)N(C)CC(=O)N[C@@H](CCC(=O)O)C(=O)NCC(=O)N[C@@H](CCC(=O)O)C(=O)N[C@@H](CCCCNC(=O)CC[C@H](NC(=O)CNC(=O)CC[C@H](NC(=O)CCCCCCCCCCCCCCCCC(=O)O)C(=O)O)C(=O)O)C(N)=O)NC(=O)[C@H](CCCNC(=N)N)NC(=O)[C@H](Cc2c[nH]cn2)NC(=O)[C@H](CCC(=O)O)NC(=O)CNC(=O)[C@H](Cc2c[nH]c3ccccc23)NC(=O)[C@H](CC(=O)O)NC(=O)[C@H](CCC(N)=O)NC(=O)[C@H](Cc2cn(C)c3ccccc23)NC1=O [Compound 109] (Ac-EGSAYCI[Trp(1-Me)]QDWGEHRC[Sar]EGEK([γGlu-Gly-γGlu-C18 diacid])-NH2; disulfide 6-16) | − (denotes lack of solubility at the given condition, as UV absorbance at 340 nm exceeds 0.1 AU and/or it is visibly turbid or contains particles.) | + (denotes solubility at the given condition, as determined by UV absorbance being less than 0.1 AU at 340 nm and the sample being clear when manually inspected.) | + (denotes solubility at the given condition, as determined by UV absorbance being less than 0.1 AU at 340 nm and the sample being clear when manually inspected.) | + (denotes solubility at the given condition, as determined by UV absorbance being less than 0.1 AU at 340 nm and the sample being clear when manually inspected.) | + (denotes solubility at the given condition, as determined by UV absorbance being less than 0.1 AU at 340 nm and the sample being clear when manually inspected.) | < 250 |
| CC[C@H](C)[C@@H]1NC(=O)[C@@H](NC(=O)[C@H](Cc2ccccc2)NC(=O)[C@H](C)NC(=O)[C@H](CO)NC(=O)CNC(=O)[C@H](CCC(=O)O)NC(C)=O)CSSC[C@@H](C(=O)N[C@H](C(=O)N[C@@H](CCC(=O)O)C(N)=O)[C@@H](C)O)NC(=O)[C@H](CCCNC(=N)N)NC(=O)[C@H](Cc2c[nH]cn2)NC(=O)[C@H](CCC(=O)O)NC(=O)CNC(=O)[C@H](Cc2c[nH]c3ccccc23)NC(=O)[C@H](CC(=O)O)NC(=O)[C@H](CCC(N)=O)NC(=O)[C@H](Cc2cn(C)c3ccccc23)NC1=O [Compound 57] (Ac-EGSAFCI[Trp(1-Me)]QDWGEHRCTE-NH2; disulfide 6-16) | − (denotes lack of solubility at the given condition, as UV absorbance at 340 nm exceeds 0.1 AU and/or it is visibly turbid or contains particles.) | − (denotes lack of solubility at the given condition, as UV absorbance at 340 nm exceeds 0.1 AU and/or it is visibly turbid or contains particles.) | + (denotes solubility at the given condition, as determined by UV absorbance being less than 0.1 AU at 340 nm and the sample being clear when manually inspected.) | + (denotes solubility at the given condition, as determined by UV absorbance being less than 0.1 AU at 340 nm and the sample being clear when manually inspected.) | + (denotes solubility at the given condition, as determined by UV absorbance being less than 0.1 AU at 340 nm and the sample being clear when manually inspected.) | < 100 |
| CC[C@H](C)[C@@H]1NC(=O)[C@@H](NC(=O)[C@H](Cc2ccc(O)cc2)NC(C)=O)CSSC[C@@H](C(=O)N[C@H](C(=O)NCC(=O)N[C@@H](C)C(=O)N[C@@H](CCC(=O)O)C(=O)N[C@@H](CO)C(N)=O)[C@@H](C)O)NC(=O)[C@H](CCCNC(=N)N)NC(=O)[C@H](Cc2c[nH]cn2)NC(=O)[C@H](CCC(=O)O)NC(=O)CNC(=O)[C@H](Cc2c[nH]c3ccccc23)NC(=O)[C@H](CC(=O)O)NC(=O)[C@H](CCC(N)=O)NC(=O)[C@H](Cc2c[nH]c3ccccc23)NC1=O [Compound 66] (Ac-YCIWQDWGEHRCTGAES-NH2; disulfide 2-12) | − (denotes lack of solubility at the given condition, as UV absorbance at 340 nm exceeds 0.1 AU and/or it is visibly turbid or contains particles.) | − (denotes lack of solubility at the given condition, as UV absorbance at 340 nm exceeds 0.1 AU and/or it is visibly turbid or contains particles.) | + (denotes solubility at the given condition, as determined by UV absorbance being less than 0.1 AU at 340 nm and the sample being clear when manually inspected.) | + (denotes solubility at the given condition, as determined by UV absorbance being less than 0.1 AU at 340 nm and the sample being clear when manually inspected.) | + (denotes solubility at the given condition, as determined by UV absorbance being less than 0.1 AU at 340 nm and the sample being clear when manually inspected.) | < 100 |
| CC[C@H](C)[C@@H]1NC(=O)[C@@H](NC(=O)[C@H](Cc2ccccc2)NC(C)=O)CSSC[C@@H](C(=O)N[C@H](C(=O)NCC(=O)N[C@@H](C)C(=O)N[C@@H](CCC(=O)O)C(=O)N[C@@H](CO)C(N)=O)[C@@H](C)O)NC(=O)[C@H](CCCNC(=N)N)NC(=O)[C@H](Cc2c[nH]cn2)NC(=O)[C@H](CCC(=O)O)NC(=O)CNC(=O)[C@H](Cc2c[nH]c3ccccc23)NC(=O)[C@H](CC(=O)O)NC(=O)[C@H](CCC(N)=O)NC(=O)[C@H](Cc2cccc3ccccc23)NC1=O [Compound 63] (Ac-FCI[1Nal]QDWGEHRCTGAES-NH2; disulfide 2-12) | − (denotes lack of solubility at the given condition, as UV absorbance at 340 nm exceeds 0.1 AU and/or it is visibly turbid or contains particles.) | − (denotes lack of solubility at the given condition, as UV absorbance at 340 nm exceeds 0.1 AU and/or it is visibly turbid or contains particles.) | + (denotes solubility at the given condition, as determined by UV absorbance being less than 0.1 AU at 340 nm and the sample being clear when manually inspected.) | + (denotes solubility at the given condition, as determined by UV absorbance being less than 0.1 AU at 340 nm and the sample being clear when manually inspected.) | + (denotes solubility at the given condition, as determined by UV absorbance being less than 0.1 AU at 340 nm and the sample being clear when manually inspected.) | < 100 |
